The values below are quoted from earlier work in PubChem BioAssay AID1259409 (Chemical Carcinogenesis Research Information System (CCRIS), 2018).

In this data set the test system is rodent chemically induced tumor inhibition, incidence and multiplicity. The data set can be described thus: CCRIS tumor inhibitor studies.

`CC(C)C[C@H]1C(=O)N2CCC[C@H]2[C@]2(O)O[C@](NC(=O)[C@@H]3C=C4c5cccc6[nH]c(Br)c(c56)C[C@H]4N(C)C3)(C(C)C)C(=O)N12`: the “tumour outcome (control, treated, inhibition, significance)” value (Carcinogen: N-METHYL-N-NITROSOUREA, 684-93-5, Dose [Inhibitor]: 0.4 MG/100 G BW 1/D FOR 129 D BEGINNING AT 60 D OF AGE (STUDY DURATION: 223 D), Route [Inhibitor]: SUBCUTANEOUS, Species: RAT, Strain/Sex: SPRAGUE-DAWLEY/FEMALE, Target Tissue: Type of Lesion: MAMMARY GLAND: NOT SPECIFIED, Dose [Carcinogen]: 2.5 MG/100 G BW ONCE AT 50 D AND ONCE AT 57 D OF AGE, Promoter: NONE USED) is reported as 73%, 37%, 49%, p<0.005; the “tumour outcome (control, treated, inhibition, significance)” value (Carcinogen: N-METHYL-N-NITROSOUREA, 684-93-5, Dose [Inhibitor]: 0.4 MG/100 G BW 1/D FOR 175 D BEGINNING AT 60 D OF AGE (STUDY DURATION: 185 D), Route [Inhibitor]: SUBCUTANEOUS, Species: RAT, Strain/Sex: SPRAGUE-DAWLEY/FEMALE, Target Tissue: Type of Lesion: MAMMARY GLAND: NOT SPECIFIED, Dose [Carcinogen]: 1.25 MG/100 G BW ONCE AT 50 D AND ONCE AT 57 D OF AGE, Promoter: NONE USED) is listed as 27%, 13%, 52%, not significant; the “tumour outcome (control, treated, inhibition, significance)” value (Carcinogen: N-METHYL-N-NITROSOUREA, 684-93-5, Dose [Inhibitor]: 0.4 MG/100 G BW 1/D PLUS 328 MG RETINYL ACETATE/KG DIET FOR 175 D BEGINNING AT 60 D OF AGE (STUDY DURATION: 185 D), Route [Inhibitor]: SUBCUTANEOUS, Species: RAT, Strain/Sex: SPRAGUE-DAWLEY/FEMALE, Target Tissue: Type of Lesion: MAMMARY GLAND: NOT SPECIFIED, Dose [Carcinogen]: 1.25 MG/100 G BW ONCE AT 50 D AND ONCE AT 57 D OF AGE, Promoter: NONE USED) is listed as 27%, 0%, 100%, p<0.01; the “tumour outcome (control, treated, inhibition, significance)” value (Carcinogen: N-METHYL-N-NITROSOUREA, 684-93-5, Dose [Inhibitor]: 0.4 MG/100 G BW 1/D PLUS 328 MG RETINYL ACETATE/KG OF DIET, FOR 129 D BEGINNING AT 60 D OF AGE (STUDY DURATION: 223 D), Route [Inhibitor]: SUBCUTANEOUS, Species: RAT, Strain/Sex: SPRAGUE-DAWLEY/FEMALE, Target Tissue: Type of Lesion: MAMMARY GLAND: NOT SPECIFIED, Dose [Carcinogen]: 2.5 MG/100 G BW ONCE AT 50 D AND ONCE AT 57 D OF AGE, Promoter: NONE USED) was 73%, 7%, 90%, p<0.005; the “tumour outcome (control, treated, inhibition, significance)” value (Carcinogen: NONE USED, Dose [Inhibitor]: 0.1 MG IN SALINE 1/D FOR 12 MO BEGINNING AT 2 MO OF AGE (STUDY DURATION: 22 MO), Route [Inhibitor]: SUBCUTANEOUS, Species: MOUSE, Strain/Sex: C3H/FEMALE, Target Tissue: Type of Lesion: MAMMARY GLAND: CARCINOMA, Promoter: NONE USED) is reported as 24/90 (27%), 1/90 (1%), 96%, p<0.001; the “tumour outcome (control, treated, inhibition, significance)” value (Carcinogen: NONE USED, Dose [Inhibitor]: 0.1 MG IN SALINE 1/D FOR 30 D ON ALTERNATE MO BEGINNING AT 7 MO OF AGE FOR 12 MO (STUDY DURATION: 12 MO), Route [Inhibitor]: SUBCUTANEOUS, Species: MOUSE, Strain/Sex: C3H/FEMALE, Target Tissue: Type of Lesion: MAMMARY GLAND: CARCINOMA, Promoter: NONE USED) was 36/70 (51%), 9/70 (13%), 74%, p<0.01. The “tumour outcome (control, treated, inhibition, significance)” value was 24/29 (83%), 13/28 (46%), 44%, p<0.01 (Carcinogen: NONE USED, Dose [Inhibitor]: 0.1 MG/D BEGINNING AT 1 MO OF AGE FOR 16 MO (STUDY DURATION: 16 MO), Route [Inhibitor]: SUBCUTANEOUS, Species: MOUSE, Strain/Sex: C3H/FEMALE, Target Tissue: Type of Lesion: MAMMARY GLAND: TUMOR, Promoter: NONE USED); 70%, 32%, 54%, p<0.05 (Carcinogen: NONE USED, Dose [Inhibitor]: 0.5 MG IN 0.05 ML OLIVE OIL 1/D FOR 7 WK BEGINNING AT 4 WK OF AGE (STUDY DURATION: 26 MO), Route [Inhibitor]: SUBCUTANEOUS, Species: RAT, Strain/Sex: SPRAGUE-DAWLEY/FEMALE, Target Tissue: Type of Lesion: MAMMARY GLAND: TUMOR, Promoter: NONE USED); 70%, 55%, 21%, p<0.05 (Carcinogen: NONE USED, Dose [Inhibitor]: 0.5 MG IN 0.05 ML OLIVE OIL 1/D FOR 7 WK BEGINNING AT 11 WK OF AGE (STUDY DURATION: 26 MO), Route [Inhibitor]: SUBCUTANEOUS, Species: RAT, Strain/Sex: SPRAGUE-DAWLEY/FEMALE, Target Tissue: Type of Lesion: MAMMARY GLAND: TUMORS, Promoter: NONE USED); 33/38 (87%), 10/13 (77%), 11%, not calculated (Carcinogen: NONE USED, Dose [Inhibitor]: 8.5 MG/KG 1/D FOR 4 D TO PREGNANT MICE ON D 12 TO D 15 OF PREGNANCY, FEMALE OFFSPRING OBSERVED FOR 10 MO (STUDY DURATION, Route [Inhibitor]: SUBCUTANEOUS, Species: MOUSE, Strain/Sex: SHN/FEMALE, Target Tissue: Type of Lesion: MAMMARY GLAND: NOT SPECIFIED, Promoter: NONE USED); 33/38 (87%), 17/17 (100%), -15%, not significant (Carcinogen: NONE USED, Dose [Inhibitor]: 40 MG/KG 1/D FOR FIRST 5 D OF POSTNATAL LIFE, OBSERVED FOR 10 MO (STUDY DURATION: 10 MO), Route [Inhibitor]: SUBCUTANEOUS, Species: MOUSE, Strain/Sex: SHN/FEMALE, Target Tissue: Type of Lesion: MAMMARY GLAND: NOT SPECIFIED, Promoter: NONE USED); 39/44 (89%), 24/43 (56%), 37%, p<0.05 (Carcinogen: NONE USED, Dose [Inhibitor]: 100 UG OF 1 MG/ML DISSOLVED IN A MINIMAL AMOUNT OF ETHANOL AND SUSPENDED IN 0.9% NACL 1/D FROM D 7 TO 21 OF PREGNANCY (S, Route [Inhibitor]: SUBCUTANEOUS, Species: MOUSE, Strain/Sex: GR/FEMALE, Target Tissue: Type of Lesion: MAMMARY GLAND: TUMOR, Promoter: NONE USED). Moreover, the outcome by setting is: (Carcinogen: N-METHYL-N-NITROSOUREA, 684-93-5, Dose [Inhibitor]: 400 UG/100 G BW TOGETHER WITH 25 UG/100 G BW TAMOXIFEN 1/D FOR 6 MO BEGINNING 3 D POST CARCINOGEN DOSE, DOSAGE OF BOTH R, Route [Inhibitor]: SUBCUTANEOUS, Species: RAT, Strain/Sex: SPRAGUE-DAWLEY/FEMALE, Target Tissue: Type of Lesion: MAMMARY GLAND: CARCINOMA, Dose [Carcinogen]: 2.5 MG/100 G BW ONCE AT 50 D AND ONCE AT 57 D OF AGE, Promoter: NONE USED) 88%, 3%, 97%, p<0.001 (at 4 mo post carcinogen dose); 88%, 28%, 68%, not calcula; (Carcinogen: N-METHYL-N-NITROSOUREA, 684-93-5, Dose [Inhibitor]: 400 UG/100 G BW TOGETHER WITH 25 UG/100 G BW TAMOXIFEN 1/D FOR 6 MO PLUS 328 MG RETINYL ACETATE/KG DIET FOR 6 MO, DOSAGE, Route [Inhibitor]: SUBCUTANEOUS, Species: RAT, Strain/Sex: SPRAGUE-DAWLEY/FEMALE, Target Tissue: Type of Lesion: MAMMARY GLAND: CARCINOMA, Dose [Carcinogen]: 2.5 MG/100 G BW ONCE AT 50 D AND ONCE AT 57 D OF AGE, Promoter: NONE USED) 88%, 0%, 100%, p<0.001 (at 4 mo post carcinogen dose); 88%, 7%, 92%, not calcula; (Carcinogen: N-ethyl-N'-nitro-N-nitrosoguanidine (ENNG), 4245-77-6, Dose [Inhibitor]: 1 mg/kg bw 5 x a wk up to 14.5 mo of age (half a mo before termination of experiment), Route [Inhibitor]: Subcutaneous, Species: Rat, Strain/Sex: Crj:Donryu/female, Target Tissue: Type of Lesion: Uterus: Adenocarcinoma, Dose [Carcinogen]: 20 mg/kg, Promoter: None) 9/25 (36%), 3/23 (13%), p<0.05.
